# According to paper PMC5929572, “Nucleobases and corresponding nucleosides display potent antiviral activities against dengue virus possibly through viral lethal mutagenesis” (PLoS Neglected Tropical Diseases, 2018):
# Assays:
# [1] = Cell viability assay (MTS) in DENV replicon cells; format: cell-based, baby hamster; conditions: hamster, DENV replicon cells (BHK pD2-hRucPac-2ATG30), DENV replicon BHK cells, MTS, 72 h
# DENV-2 [2] = assay: Sequence analysis of prM/E region clones from passaged virus (mutation frequency); format: cell-based, DENV-2 New Guinea C strain
# Method: For qPCR determination of viral genome copy number, viral RNA was isolated from 140 μL of drug-treated or DMSO-treated infected culture supernatant using QIAamp Viral RNA mini kit (Qiagen), following manufacturer’s protocol. Viral RNA was quantified using the TaqMan RNA-to-CT 1-Step qPCR Kit (Applied Biosystems). Primers used for qPCR were 5’-[…]-3’ (forward) and 5’-[…]-3’ (reverse) amplifying a region numbering 8928–8988 in the genome (numbering starting from the beginning of genome, accession number KM204118). The qPCR FAM probe sequence is 5’-[…]-3’. Serial 10-fold dilutions of plasmid containing the NS5 gene of DENV were used to generate a standard curve for the quantification of viral RNA genome copy number based on cycle threshold (CT) values. The limit of detection for NS5 plasmid dilutions was 30 copies (S1 Fig). […] Statistical analysis via GraphPad Prism 5 software. To obtain sequence data from viral RNA isolated at each passage, cDNA was generated via M-MLV reverse transcriptase and random hexamers (New England Biolab Inc.) per manufacturer’s instructions. An approximately 1600-base fragment covering membrane protein (prM) and envelop protein gene (E) of DENV-2 viral genome was amplified using PfuUltra II Fusion HS DNA polymerase (Agilent) with primers prMEfor (5'- […]-3') and prMErev (5'- […] -3'). PCR products were purified using Qiaquick PCR purification kit (Qiagen) and then digested with EcoRI and ligated into pcDNA3.1 for sequencing. Sequence for approximately 40–50 individual clones per sample was obtained from the University of Minnesota Genomics Center. Sequences were aligned over a 980-base region that had adequate quality sequencing reads for all clones. Only mutations present in both the forward and reverse reads of a clone were counted. All incidence-based determinants of mutation frequency (Mf min, Mf max, Mfe) were calculated as described.
# Virus was passaged on Huh-7 cells supplemented with 200 μM 3a, 500 μM 3b or DMSO (0.5%). Huh-7 cells were seeded in 12-well plates and inoculated with DENV-2 as described for Titer reduction experiments above except an m.o.i. of 0.01 was used. After 3 days of compound treatment, 50 μL of the harvested supernatant was used to inoculate fresh Huh-7 cells in the continued presence of compound. The virus titer in the harvested supernatant was determined by plating ten-fold serial dilutions onto single wells of a 24-well plate. The wells were washed and overlaid as described in the Titer reduction assay above. If no plaques were obtained in any of the harvested supernatant dilutions, the undiluted supernatant was used. If plaques were not detectable, the virus titer was considered to be at the limit of detection, 1 plaque (3.3 pfu/mL). Supernatant titer was determined from a single well where there were approximately 20–50 plaques when possible. This experiment was repeated three times at the compound concentrations listed.
# DENV-2 [3] = assay: Virus passage in presence of compound, supernatant titer by plaque assay; format: cell-based, DENV-2 New Guinea C strain; conditions: 3b 500 μM, Huh-7, passages 4 and 5; limit of detection 3.3 pfu/mL
# Method: Huh-7 cells were seeded in 12-well plates at a density of 4×10^5 cells per well in 1 mL culture medium. The next day, cells were washed and inoculated with DENV at a multiplicity of infection (m.o.i.) of 0.2 in 500μl infection medium (MEM containing 2% FBS and 10 mM HEPES). The inoculum was removed after 1h, cells were washed with PBS and then incubated in 1 mL MEM, 2% FBS, 1% pen/strep plus compound for 72 h. Viral supernatants were clarified by centrifugation for 5 min at 1500×g and aliquoted and stored at -80°C. Viral titers were determined using a plaque assay on Vero cells. Briefly, confluent Vero cell monolayers in 24-well plates were incubated at 37°C for 1 h with duplicate 300 μl samples of 10-fold serial dilutions of viral supernatants. The cells were then washed to remove unbound viral particles and overlaid with 500ul MEM containing 1.3% methylcellulose, 5% FBS and 10mM HEPES. […] Infectious virus titer (pfu/mL) was determined using the following formula: number of plaques × dilution factor × (1/inoculation volume). […]
# (§1) Virus was passaged on Huh-7 cells supplemented with 200 μM 3a, 500 μM 3b or DMSO (0.5%). […] The virus titer in the harvested supernatant was determined by plating ten-fold serial dilutions onto single wells of a 24-well plate. […] Supernatant titer was determined from a single well where there were approximately 20–50 plaques when possible. […]
# DENV-2 [4] = assay: Virus passage in presence of compound, genome copy number by RT-qPCR (NS5); format: cell-based, DENV-2 New Guinea C strain; conditions: 3b 500 μM, Huh-7, passage 5; limit of detection 30 copies
# Method: For qPCR determination of viral genome copy number, viral RNA was isolated from 140 μL of drug-treated or DMSO-treated infected culture supernatant using QIAamp Viral RNA mini kit (Qiagen), following manufacturer’s protocol. Viral RNA was quantified using the TaqMan RNA-to-CT 1-Step qPCR Kit (Applied Biosystems). Primers used for qPCR were 5’-[…]-3’ (forward) and 5’-[…]-3’ (reverse) amplifying a region numbering 8928–8988 in the genome (numbering starting from the beginning of genome, accession number KM204118). The qPCR FAM probe sequence is 5’-[…]-3’. Serial 10-fold dilutions of plasmid containing the NS5 gene of DENV were used to generate a standard curve for the quantification of viral RNA genome copy number based on cycle threshold (CT) values. […] Sequences were aligned over a 980-base region that had adequate quality sequencing reads for all clones. Only mutations present in both the forward and reverse reads of a clone were counted. All incidence-based determinants of mutation frequency (Mf min, Mf max, Mfe) were calculated as described.
# as §1
# DENV-2 [5] = assay: Titer reduction assay in Huh-7 cells, plaque assay on Vero cells; format: cell-based, DENV-2 New Guinea C strain; conditions: Dengue virus, DENV2, m.o.i. 0.2, 72 h
# Method: Huh-7 cells were seeded in 12-well plates at a density of 4×10^5 cells per well in 1 mL culture medium. The next day, cells were washed and inoculated with DENV at a multiplicity of infection (m.o.i.) of 0.2 in 500μl infection medium (MEM containing 2% FBS and 10 mM HEPES). The inoculum was removed after 1h, cells were washed with PBS and then incubated in 1 mL MEM, 2% FBS, 1% pen/strep plus compound for 72 h. Viral supernatants were clarified by centrifugation for 5 min at 1500×g and aliquoted and stored at -80°C. Viral titers were determined using a plaque assay on Vero cells. Briefly, confluent Vero cell monolayers in 24-well plates were incubated at 37°C for 1 h with duplicate 300 μl samples of 10-fold serial dilutions of viral supernatants. The cells were then washed to remove unbound viral particles and overlaid with 500ul MEM containing 1.3% methylcellulose, 5% FBS and 10mM HEPES. After 5 days of incubation at 37°C and 5% CO2, cells were washed with PBS, fixed, and stained using 1% Giemsa. Infectious virus titer (pfu/mL) was determined using the following formula: number of plaques × dilution factor × (1/inoculation volume). The viral titer was presented as the mean of duplicate samples from a dilution yielding approximately 20–50 plaques per well.
# [6] = Cell viability assay (MTS) in Huh-7 cells; format: cell-based; conditions: human
# Method: The sensitivity of the cell lines to the compounds was examined using the 3-(4,5-dimethylthiazol-2-yl)-5-(3-carboxymethoxyphenyl)-2-(4-sulfophenyl)-2H-tetrazolium (MTS)-based tetrazolium reduction CellTiter 96 Aqueous Non-Radioactive cell proliferation assay (Promega G5430). The compounds were initially tested at 10 and 50 μM final concentrations. Each plate also contained DMSO alone, medium alone, and an inhibitory compound, 6. DENV replicon or Huh-7 cells were plated at a density of 1,500 or 8 × 10^3 cells, respectively, per well in 96-well plates containing 100 μl of culture medium overnight. Compounds were added to triplicate wells in culture medium and incubated for an additional 72 h. MTS reagent was then added to each well and incubated at 37°C in a humidified 5% CO2 atmosphere. The plates were read at various time points at a wavelength of 490 nm using a Molecular Devices M5e plate reader. Mean values of triplicate wells were determined and compared to the mean value for the wells that received DMSO alone. For compounds selected for dose-response experiments, the CC50 was determined by comparing cell viability for eight serial dilutions of the compound and DMSO treated cells using GraphPad Prism software.
# [7] = tested on: DENV replicon cells (BHK pD2-hRucPac-2ATG30); assay: Cell viability assay (MTS) in DENV replicon cells; format: cell-based, baby hamster
# DENV-2 viral replicon = assay: microbe, parasite or virus in culture; format: cell-based; conditions: Dengue virus, DENV2, BHK, 72 h
# Method: Compounds were evaluated for antiviral properties using BHK cells containing a DENV-2 viral replicon. 1.5 × 10^3 replicon-containing cells per well were plated in white opaque 96-well plates in the absence of antibiotic selection and the next day, compounds dissolved in DMSO were added to triplicate wells in culture medium. The compounds were initially tested at 10 and 50 μM final concentrations and each plate also contained DMSO alone, medium alone, and 6. Three days later, medium was replaced with a 1:1000 dilution of ViVi-Ren Live Cell Substrate (Promega) in DME minus phenol red and 10% FBS. Luminescence was measured with a Molecular Devices M5e plate reader. Mean values of triplicate wells were determined and compared to the mean value for the wells that received DMSO alone. […] The EC50 was determined by comparing luciferase activity for eight serial dilutions of the compound and DMSO treated cells using GraphPad Prism software.
# [8] = passage 2, 3a 200 μM, 3b 500 μM, Huh-7
# [9] = passage 3, 3a 200 μM, 3b 500 μM, Huh-7
compound,measurement,setting,value
NC(=O)c1nccn([C@@H]2O[C@H](CO)[C@@H](O)[C@H]2O)c1=O [Compound 3b],CC50 at 72 h,[1],> 1000 µM
same,number of mutations per clone compared to DMSO,"DENV-2 [2]; 3a 200 μM passage 4, 3b 500 μM passage 3, p < 0.0001, Mann-Whitney U",significant difference
same,Mf max (maximum mutation frequency),DENV-2 [2]; [8],"15.3 per 10,000 nucleotides"
same,Mf min (minimum mutation frequency),DENV-2 [2]; [8],"10.7 per 10,000 nucleotides"
same,Mfe (entity level mutation frequency),DENV-2 [2]; [8],2.4 ×10^−3
same,Number of clones with mutation/total,DENV-2 [2]; [8],22/34
same,Number of different mutations,DENV-2 [2]; [8],33
same,Number of haplotypes,DENV-2 [2]; [8],22
same,Number of total mutations,DENV-2 [2]; [8],47
same,"Transition A→G, number of mutations",DENV-2 [2]; [8],6
same,"Transition C→U, number of mutations",DENV-2 [2]; [8],4
same,"Transition G→A, number of mutations",DENV-2 [2]; [8],6
same,"Transition U→C, number of mutations",DENV-2 [2]; [8],14
same,"Transversion G→U, number of mutations",DENV-2 [2]; [8],2
same,"Transversion U→G, number of mutations",DENV-2 [2]; [8],1
same,Mf max (maximum mutation frequency),DENV-2 [2]; [9],"15.8 per 10,000 nucleotides"
same,Mf min (minimum mutation frequency),DENV-2 [2]; [9],"4.7 per 10,000 nucleotides"
same,Mfe (entity level mutation frequency),DENV-2 [2]; [9],2.2 ×10^−3
same,Number of clones with mutation/total,DENV-2 [2]; [9],22/35
same,Number of different mutations,DENV-2 [2]; [9],15
same,Number of haplotypes,DENV-2 [2]; [9],17
same,Number of total mutations,DENV-2 [2]; [9],50
same,"Transition A→G, number of mutations",DENV-2 [2]; [9],4
same,"Transition C→U, number of mutations",DENV-2 [2]; [9],6
same,"Transition G→A, number of mutations",DENV-2 [2]; [9],1
same,"Transition U→C, number of mutations",DENV-2 [2]; [9],3
same,"Transversion U→A, number of mutations",DENV-2 [2]; [9],1
same,infectious virus in supernatant,DENV-2 [3],undetectable
same,genomic RNA in supernatant,DENV-2 [4],undetectable
same,EC50,DENV-2 [5],60 ± 22 µM
same,CC50 at 72 h,[6],> 1000 µM
"Nc1nc(N)c2[nH]cnc2n1 [Compound 4a, 2,6-diaminopurine]",CC50 at 72 h,[1],13 ± 2.1 µM
"Nc1nc(N)c2ncn([C@@H]3O[C@H](CO)[C@@H](O)[C@H]3O)c2n1 [Compound 4b, 2-Aminoadenosine]","toxicity, in words",[7]; DENV replicon cells,too toxic
same,CC50 at 72 h,[1],31 ± 1.4 µM
"NC(=O)c1nc(F)c[nH]c1=O [Compound 5a, 6-fluoro-3-hydroxypyrazine-2-carboxamide, reference compound]",CC50,"[7]; DENV replicon BHK cells, MTS, 72 h",> 665 µM
same,CC50 at 72 h,[1],> 1000 µM
same,EC50,DENV-2 viral replicon,110 ± 30 µM
"COc1c(C)c2c(c(O)c1C/C=C(\C)CCC(=O)O)C(=O)OC2 [Compound 6, mycophenolic acid, reference compound]",CC50 at 72 h,[1],1.4 ± 0.4 µM
same,EC50,DENV-2 viral replicon,0.3 ± 0.03 µM
